In the assay the target is T1, KLHL37 (Homo sapiens, UniProt O14682).
T1 construct: gene ENC1; recombinant KLHL37-His (full-length cDNA, pET-28a, E. coli)
T1 sequence (O14682 1-589): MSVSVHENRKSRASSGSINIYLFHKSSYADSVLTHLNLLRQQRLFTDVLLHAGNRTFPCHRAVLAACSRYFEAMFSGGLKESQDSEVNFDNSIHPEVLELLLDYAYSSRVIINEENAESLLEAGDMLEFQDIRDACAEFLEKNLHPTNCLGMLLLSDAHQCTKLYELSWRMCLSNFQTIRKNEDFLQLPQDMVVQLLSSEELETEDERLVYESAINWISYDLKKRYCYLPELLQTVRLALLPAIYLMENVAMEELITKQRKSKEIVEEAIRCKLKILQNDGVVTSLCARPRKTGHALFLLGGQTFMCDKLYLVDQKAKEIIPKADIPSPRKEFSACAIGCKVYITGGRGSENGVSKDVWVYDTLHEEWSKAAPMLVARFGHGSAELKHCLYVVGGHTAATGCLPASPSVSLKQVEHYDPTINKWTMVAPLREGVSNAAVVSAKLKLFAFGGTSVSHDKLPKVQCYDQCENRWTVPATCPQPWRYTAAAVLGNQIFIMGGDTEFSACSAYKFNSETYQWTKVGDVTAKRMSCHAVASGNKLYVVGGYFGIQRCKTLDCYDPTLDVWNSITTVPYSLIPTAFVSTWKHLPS
The assay is described as follows: SPR (Biacore X100, KLHL37-His immobilized on CM5 chip). The class given is binding. A general note: Surface plasmon resonance follows binding to a sensor surface in real time, without labels.

In general, Kd refers to the equilibrium constant for the complex coming apart. Read a low Kd as higher affinity. In the case of `CC1(C)CC[C@]2(NC(=O)C(C)(F)F)CC[C@]3(C)[C@H](C(=O)C=C4[C@@]5(C)C=C(C#N)C(=O)C(C)(C)[C@@H]5CC[C@]43C)[C@@H]2C1` [RTA-408], the Kd amounted to 15.2 µM.
